As a reminder, the Ki is a dissociation constant, usually derived from enzyme kinetics or from competition with a known ligand. A high value points to a looser hold on the target.

Active and inactive are the calls of the source. The calls are words filed in the database; no cut-off is given here.

Target in the first experiment: not listed separately
The experiment is described as follows: (§1) Inhibition of pig pancreatic elastase. Set-up: species or system Sus scrofa.
Take `CCC1(CC)C(=O)N(c2ccccc2)C1=O`: the Ki amounted to 10.2 µM.
Regarding `CCC1(CC)C(=O)N(c2ccc(C)cc2)C1=O`, the affinity, expressed as Ki, was 7.46 µM. This Ki and that of the compound before are within 1.5-fold of each other.
`CCC1(CC)C(=O)N(c2ccc(OC)cc2)C1=O` registered an inhibitory constant (Ki) of 9.81 µM.
For `CC1(C)C(=O)N(c2ccc(Cl)cc2)C1=O`, the inhibition constant (Ki) came to 10 µM.
As to `CCC1(CC)C(=O)N(c2ccc(C#N)cc2)C1=O`, the inhibition constant (Ki) turned out to be 6.02 µM.
The same measure, in the same setting: the value for `CC1(C)C(=O)N(Cc2ccccc2)C1=O` was 184 µM; that for `CCC1(CC)C(=O)N(c2ccc(Cl)cc2)C1=O` was 8.47 µM.

For the next experiment, the species on record is Sus scrofa. The description is as §1.
Regarding `CCOC(=O)CN1C(=O)C(CC)(CC)C1=O`, the result was inactive.
Same read-out and setting: the value for `CCC1(CC)C(=O)N(Cc2ccccc2)C1=O` was “inactive”.
